We go through 15 compounds from ChEMBL document CHEMBL6074627 (RSC Med Chem, 2024).

Test [1] concerns the target Replicase polyprotein 1ab (Severe acute respiratory syndrome coronavirus 2, UniProt P0DTD1). Briefly: Inhibition of N-terminal 8His and SUMO tagged SARS-CoV-2 nsp14 N7-methyltransferase activity extracted from Escherichia coli using S-Adenosyl-L-methionine as substrate incubated for 30 mins by mass spectrometry.
Test [2] deals with mRNA cap guanine-N(7) methyltransferase (Homo sapiens) (UniProt O43148). Briefly: Inhibition of human RNMT at 25 uM.
A further test relates to SARS-CoV-2. Briefly: Antiviral activity against SARS-CoV-2 hCoV-19/Czech Republic/NRL_6632_2/2020 infected in African green monkey Vero E6 cells assessed as reduction in viral growth […] by two-fold serial dilution assay. Particulars: Severe acute respiratory syndrome coronavirus 2. Type of test: functional, organism-based.

Calls of active or inactive are those of the source. No cut-off for these calls is given here.

Chain of mRNA cap guanine-N(7) methyltransferase (Homo sapiens) (O43148 whole entry): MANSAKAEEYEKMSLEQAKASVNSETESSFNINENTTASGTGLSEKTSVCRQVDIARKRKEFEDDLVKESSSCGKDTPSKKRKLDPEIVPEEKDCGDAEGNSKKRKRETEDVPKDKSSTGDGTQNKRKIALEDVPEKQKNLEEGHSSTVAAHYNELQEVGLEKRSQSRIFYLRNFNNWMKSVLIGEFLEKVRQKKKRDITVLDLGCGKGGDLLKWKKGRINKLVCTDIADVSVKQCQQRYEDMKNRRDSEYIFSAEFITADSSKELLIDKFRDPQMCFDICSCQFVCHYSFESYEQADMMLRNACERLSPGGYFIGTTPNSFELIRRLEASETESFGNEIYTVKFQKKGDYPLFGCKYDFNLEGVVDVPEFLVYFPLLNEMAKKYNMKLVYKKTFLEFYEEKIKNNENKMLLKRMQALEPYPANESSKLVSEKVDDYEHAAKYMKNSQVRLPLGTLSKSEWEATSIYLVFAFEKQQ

As for `Cc1noc(C)c1-c1ccc(NC(=O)[C@H]2O[C@@H](n3cnc4c(N)ncnc43)[C@H](O)[C@@H]2O)cc1`, the IC50 entry in test [1] is recorded as “Not_active”.
With `Cc1cc(=O)[nH]c2cc(NC(=O)[C@H]3O[C@@H](n4cc(C#Cc5cncnc5)c5c(N)ncnc54)[C@H](O)[C@@H]3O)ccc12`, in test [2], the inhibition entry was “inactive”. For the same compound, the outcome with SARS-CoV-2 was inactive.
For the compound `Nc1ncnc2c1ncn2[C@@H]1O[C@H](C(=O)Nc2ccc(-c3ccsc3)cc2)[C@@H](O)[C@H]1O`, the IC50 entry in test [1] is on record as “Not_active”.
For `Cc1cc(=O)oc2cc(NC(=O)[C@H]3O[C@@H](n4cnc5c(N)ncnc54)[C@H](O)[C@@H]3O)ccc12`, the inhibition result in test [2] was “inactive”. Besides, the result in the test on SARS-CoV-2 was inactive.
As for `Cc1ccc(NC(=O)[C@H]2O[C@@H](n3cnc4c(N)ncnc43)[C@H](O)[C@@H]2O)cc1O`, in test [1], the IC50 entry was “Not_active”.
In the case of `Cc1cc(=O)[nH]c2cc(N(C)C(=O)[C@H]3O[C@@H](n4cc(C#Cc5cncnc5)c5c(N)ncnc54)[C@H](O)[C@@H]3O)ccc12`, the inhibition entry in test [2] is “inactive”. Further, in the test with SARS-CoV-2, the result was inactive.
Turning to `Cc1cc(=O)[nH]c2cc(NC(=O)[C@H]3O[C@@H](n4cnc5c(N)ncnc54)[C@H](O)[C@@H]3O)ccc12`, the inhibition entry in test [2] was “inactive”. Besides, the result in the test on SARS-CoV-2 was inactive.
As to `COC(=O)c1ccc(C(=O)NC[C@H]2O[C@@H](n3cnc4c(N)ncnc43)[C@H](O)[C@@H]2O)cc1`, in test [1], the IC50 entry is “Not_active”.
With `COc1cccc(NC(=O)[C@H]2O[C@@H](n3cnc4c(N)ncnc43)[C@H](O)[C@@H]2O)c1`, the IC50 result in test [1] is listed as “Not_active”.
Consider `COC(=O)c1cc(NC(=O)[C@H]2O[C@@H](n3cnc4c(N)ncnc43)[C@H](O)[C@@H]2O)ccc1F`, for which the IC50 result in test [1] is “Not_active”.
In the case of `Nc1ncnc2c1ncn2[C@@H]1O[C@H](C(=O)Nc2ccc(-c3cn[nH]c3)cc2)[C@@H](O)[C@H]1O`, in test [1], the IC50 result is listed as “Not_active”.
As to `Nc1ncnc2c1ncn2[C@@H]1O[C@H](C(=O)Nc2ccc(-c3ccoc3)cc2)[C@@H](O)[C@H]1O`, the IC50 entry in test [1] is “Not_active”.
Take `Nc1ncnc2c1ncn2[C@@H]1O[C@H](CNC(=O)c2ccc3c(c2)OCCO3)[C@@H](O)[C@H]1O`: the IC50 result in test [1] is “Not_active”.
With `Cc1cc(=O)oc2cc(NC(=O)[C@H]3O[C@@H](n4cc(C#Cc5cncnc5)c5c(N)ncnc54)[C@H](O)[C@@H]3O)ccc12`, in test [2], the inhibition entry is “inactive”. In the test on SARS-CoV-2, the outcome was inactive.
Turning to `NC(=O)c1ccc(NC(=O)[C@H]2O[C@@H](n3cnc4c(N)ncnc43)[C@H](O)[C@@H]2O)cc1`, the IC50 entry in test [1] is “Not_active”.
